Data: patent US4338331A, “Isoindoline derivative and a therapeutic composition thereof” (priority 1979, dated 1982)
Where “and” joins values, the source holds several entries; their conditions need not be identical. Equal entries are not always repeated.

Experiments:
Format in all cases: in vivo, Wistar rat
female Wistar rats [1] = test: Effect on spontaneous diuresis (TABLE 3); conditions: 5 mg/kg oral; for Excreted sodium/potassium ratio: 12 h; for Potassium excretion / Sodium excretion: spontaneous diuresis
Description: These investigations were carried out on Wistar rats of both sexes, having a body weight which is specified in each case in the relative tables, which compare the results with Indapamide. Both the CM/1 and the Indapamide were administered orally after being suitably dissolved in the following solvent:
(§1) The controls were treated with an equal volume of solvent. The experiments were carried out on animals which had regularly fasted for at least 12 hours, but had free access to water.
(§2) The sodium and potassium in the urine were determined by a photometric method.
Finally, the effect on the new product of spontaneous diuresis was determined.
These investigations were carried out on 15 female Wistar rats having a body weight varying from 230 to 260 g, and divided at random into three groups of 5. The animals were kept in individual metabolic cages overnight for a period of 12 hours in order to collect the urine spontaneously excreted. One group was treated as usual with 1 ml/kg of solvent by means of a gastric probe, and the other two were treated respectively with 5 mg/kg of Indapamide and 5 mg/kg of CM/1. The sodium and potassium were analysed as usual in the urine collected.

female Wistar rats [2] = test: Diuretic and saluretic activity: excretion of an aqueous saline load (TABLE 1); conditions: 5 mg/kg oral
Description: (§3) Both the CM/1 and the Indapamide were administered orally after being suitably dissolved in the following solvent:
as §1, §2
The effect on the excretion of an aqueous saline load was first checked. 18 female Wistar rats were used divided into three groups, one of 8 and two of 5, and these were treated in the following manner:
GROUP A: CONTROLS 1 ml of solvent made up to 50 ml with 0.9% sodium chloride solution, administered by gastric probe, per kg of body weight (=50 ml/kg in terms of volume);
GROUP B: INDAPAMIDE 5 mg/kg in 1 ml/kg of solvent made up to 50 ml/kg with sodium chloride solution, administered by gastric probe;
GROUP C: CM/1,5 mg/kg using the same method as for the Indapamide.
The rats were placed immediately in individual metabolic cages for collecting the urine during the three hours subsequent to the load. The quantity of urine excreted is given as a percentage of the quantity administered. The sodium and potassium are expressed in mEq/3h.
Values of P less than 0.05 have been considered significant.

male rats = test: Diuretic and saluretic activity: excretion of a load of distilled water (TABLE 2); conditions: 5 mg/kg oral + aqueous load
Description: as §3, §1, §2
The rats were then immediately placed in individual metabolic cages. The urine was collected over 4 hours. The quantity has been expressed in the usual manner as a percentage of the volume administered.
Sodium and potassium were also analysed, and these have been expressed as mEq/4h.
After two days, in the preceding manner, the same rats were treated with Indapamide, and after a further two days with the product CM/1. In the interval between one test and the other, the rats were housed and fed in the normal manner. The dose used for both compounds was the same as previously, i.e. 5 mg/kg.

[3] = saline load, mean ± standard error, n = 5

SMILES: CC1Cc2ccccc2N1NC(=O)c1ccc(Cl)c(S(N)(=O)=O)c1 (stereo not drawn) [Indapamide, N-(3-sulphamyl-4-chlorobenzamido)-2-methylindoline, reference compound]
- diuretic action (female Wistar rats [1]): marked diuretic action
- sodium and potassium excretion (female Wistar rats [1]): increased
- Excreted sodium/potassium ratio (female Wistar rats [1]; individual rats): 1.170 and 1.417 and 1.803 and 1.346 and 1.555
- Excreted sodium/potassium ratio (female Wistar rats [1]; mean ± standard error, n = 5): 1.4582 ± 0.106
- ml of urine collected in 12 hours (female Wistar rats [1]; individual rats): 11.5 mL and 13.7 mL and 18.6 mL and 14.5 mL and 15.5 mL
- ml of urine collected in 12 hours (female Wistar rats [1]; mean ± standard error, n = 5): 14.76 ± 1.16 mL
- Potassium excretion (female Wistar rats [1]; individual rats): 4.560 mEq/12h and 3.356 mEq/12h and 3.760 mEq/12h and 5.776 mEq/12h and 4.352 mEq/12h
- Sodium excretion (female Wistar rats [1]; individual rats): 5.335 mEq/12h and 4.756 mEq/12h and 6.780 mEq/12h and 7.775 mEq/12h and 6.767 mEq/12h
- Potassium excretion (female Wistar rats [1]; mean ± standard error, n = 5): 4.3608 ± 0.413 mEq/12h
- Sodium excretion (female Wistar rats [1]; mean ± standard error, n = 5): 6.2826 ± 0.544 mEq/12h
- Urine excretion of load in percent of quantity administered (cumulative excretion), 1 hour (female Wistar rats [2]; individual rats): 16.7% and 12.5% and 8.7% and 6.7%
- Urine excretion of load in percent of quantity administered (cumulative excretion), 2 hours (female Wistar rats [2]; individual rats): 50.0% and 37.5% and 26.1% and 30.8% and 52.2%
- Urine excretion of load in percent of quantity administered (cumulative excretion), 3 hours (female Wistar rats [2]; individual rats): 83.3% and 81.2% and 65.2% and 69.2% and 100.0%
- Urine excretion of load in percent of quantity administered (cumulative excretion), 1 hour (female Wistar rats [2]; mean ± standard error, n = 5): 10.66 ± 1.77%
- Urine excretion of load in percent of quantity administered (cumulative excretion), 2 hours (female Wistar rats [2]; mean ± standard error, n = 5): 39.32 ± 5.15%
- diuretic and saluretic effect (female Wistar rats [2]; relative to the controls): significant diuretic and saluretic effect relative to the controls
- ratio of the sodium to the potassium excreted during the 3 hours (female Wistar rats [2]; saline load): 4.48
- Potassium excretion (female Wistar rats [2]; saline load, individual rats): 0.36 mEq/3h and 0.38 mEq/3h and 0.28 mEq/3h and 0.31 mEq/3h and 0.33 mEq/3h
- Sodium excretion (female Wistar rats [2]; saline load, individual rats): 1.50 mEg/3h and 1.45 mEg/3h and 1.33 mEg/3h and 1.61 mEg/3h and 1.55 mEg/3h
- Potassium excretion (female Wistar rats [2]; [3]): 0.332 ± 0.0177 mEq/3h
- Sodium excretion (female Wistar rats [2]; [3]): 1.488 ± 0.047 mEg/3h
- excreted sodium and potassium (female Wistar rats [2]; versus controls): significantly higher than the controls
- diuretic and saluretic action (male rats): significant diuretic and saluretic action
- RATIO Na/K (sodium to potassium excreted) (male rats; 4 h, average): 1.6764
- Cumulative percent excretion at 1 hour from load (male rats; individual rats): 25.8% and 35.7% and 0.0% and 27.6% and 51.6%
- Cumulative percent excretion at 2 hours from load (male rats; individual rats): 83.9% and 92.8% and 42.9% and 82.8% and 101.7%
- Cumulative percent excretion at 3 hours from load (male rats; individual rats): 116.1% and 107.2% and 85.8% and 110.4% and 121.1%
- Cumulative percent excretion at 4 hours from load (male rats; individual rats): 138.7% and 107.2% and 114.4% and 110.4% and 140.5%
- Potassium excretion (male rats; individual rats): 0.00998 mEq/4h and 0.00543 mEq/4h and 0.00814 mEq/4h and 0.00692 mEq/4h and 0.01579 mEq/4h
- Sodium excretion (male rats; individual rats): 0.01808 mEq/4h and 0.00771 mEq/4h and 0.01403 mEq/4h and 0.01077 mEq/4h and 0.02694 mEq/4h
- Cumulative percent excretion at 1 hour from load (male rats; mean of 5 rats): 28.14%
- Cumulative percent excretion at 2 hours from load (male rats; mean of 5 rats): 80.82%
- Cumulative percent excretion at 3 hours from load (male rats; mean of 5 rats): 108.12%
- Cumulative percent excretion at 4 hours from load (male rats; mean of 5 rats): 122.24 ± 4.47%
- Potassium excretion (male rats; mean of 5 rats): 0.009252 mEq/4h
- Sodium excretion (male rats; mean of 5 rats): 0.01551 mEq/4h
